We go through 98 compounds from ChEMBL document CHEMBL3507680, “University of Dundee, Gates Library screen for HepG2 cell viability”.

This data set in a line: Human HepG2 cell viability assay in 384 well format. Type of data set: toxicity, cell-based. On the set-up: dose 125 nL, time 70.5 hour; concentration not given beside the values. The following applies: HepG2 cells, read-out: Inhibition.
In the case of `CC(C)Nc1nc2c(s1)C(=O)CN(C)C2`, the cytotoxicity at 70.5 h came out at 4.07%.

For `CNCC[C@H]1CC(C)(C)Oc2ccc(C)cc21`, the cytotoxicity at 70.5 h is -2.65%.

As for `CNCC[C@H]1CC(C)(C)Oc2ccc(OC)cc21`, the cytotoxicity at 70.5 h is -0.183%.

For the compound `CN(C)c1nccc(-c2cnc(N(C)C)[nH]c2=O)n1`, the cytotoxicity at 70.5 h was -5.37%.

For `CC(=O)N1CCC(n2nccc2-c2cnc(N)nc2)CC1`, the cytotoxicity at 70.5 h was -6.3%.

Regarding `Nc1ncc(-c2ccc(NC(=O)[C@@H]3CCCCN3)cc2)cn1`, the cytotoxicity at 70.5 h amounted to 2.01%.

As for `CC[C@H](C)Nc1nccc(-c2cnc3sccn3c2=O)n1`, the cytotoxicity at 70.5 h is -4.72%.

Regarding `CC(C)NC(=O)NCc1cc(-c2cccc(Cl)c2)nn1C`, the cytotoxicity at 70.5 h came to 7.95%.

Consider `C[C@H](NS(C)(=O)=O)C(=O)NCc1cc(-c2ccco2)n[nH]1`, for which the cytotoxicity at 70.5 h is -12.9%.

For `Cc1ncc(-c2ccnc(SCCN)n2)c(-c2ccco2)n1`, the cytotoxicity at 70.5 h was 21.8%.

Turning to `OC1(CNCCSc2ccccn2)CCCNC1` (stereo not drawn), the cytotoxicity at 70.5 h is -6.54%.

As for `CCC(C(=O)NCC1=CCN(C)CC1)c1ccccc1` (stereo not drawn), the cytotoxicity at 70.5 h came to 30%.

For `Cc1csc(CN2C[C@H](NC(=O)C3CCOCC3)[C@@H](C(C)C)C2)n1`, the cytotoxicity at 70.5 h is -10.9%.

As for `COc1cc(CN2CCC3(CC2)[C@H](O)C[C@@H]3OCCO)ccc1F`, the cytotoxicity at 70.5 h was -8.63%.

For `CC(c1ccccn1)N(C)Cc1ccc(-n2ccnc2)cc1` (stereo not drawn), the cytotoxicity at 70.5 h stood at 1.45%.

As for `CNc1ncc(C(=O)N[C@H]2CN(CCCSC)C[C@@H]2C2CC2)cn1`, the cytotoxicity at 70.5 h was -5.85%.

With `Cc1ccc(-c2cnnc(N3CCCC3c3nccs3)n2)o1` (stereo not drawn), the cytotoxicity at 70.5 h was -7.57%.

For the compound `N[C@@H]1CC[C@@H](Nc2nccc(CCC(F)(F)F)n2)C1`, the cytotoxicity at 70.5 h was -6.78%.

With `CC(C)c1nnsc1CNC(=O)C1CCN(C(C)C)CC1`, the cytotoxicity at 70.5 h turned out to be 1.46%.

`O=C(CN1C[C@H]2CC[C@@H]1CN(Cc1ccccn1)C2)Nc1ccccc1`: the cytotoxicity at 70.5 h is -6.28%.

For the compound `COc1ccccc1CCC(=O)N1CCCC(OCc2cccnc2)C1` (stereo not drawn), the cytotoxicity at 70.5 h was 26.8%.

With `NC(=O)c1cnc2n1CCN(C(=O)c1ccc(Cn3cccc3)cc1)C2`, the cytotoxicity at 70.5 h is 5.38%.

`CCc1cc(CN(C)C(=O)c2cnc3c(c2)nc(N)n3CC)on1`: the cytotoxicity at 70.5 h was -2.5%.

With `CCn1cc(-c2n[nH]c(=O)n2-c2ccc3c(c2)OCO3)c(C)n1`, the cytotoxicity at 70.5 h is -4.59%.

On to `CN(C)CCN(C)C[C@@H]1CN(Cc2cccc(O)c2)C[C@@H]1CO`, for which the cytotoxicity at 70.5 h is -3.65%.

For `O=C1CC(NCc2ccc(Cl)s2)CN1Cc1cccc(F)c1` (stereo not drawn), the cytotoxicity at 70.5 h was -7.49%.

As to `CCc1cc(NCCS(=O)(=O)N(C)C)nc(N2CCOCC2)n1`, the cytotoxicity at 70.5 h was -13.2%.

In the case of `CCC(OC)C(=O)NCC1CCN(c2cnn(C)c(=O)c2)CC1` (stereo not drawn), the cytotoxicity at 70.5 h is -3.42%.

On to `OCC1(O)CCCN(Cc2noc(-c3ccccc3)n2)C1` (stereo not drawn), for which the cytotoxicity at 70.5 h was -10.2%.

As for `CCOCCn1nc(C)cc1C(=O)N1CC[C@](O)(CC)[C@H](O)C1`, the cytotoxicity at 70.5 h came out at 3.37%.

Regarding `CCCC(C)NC1CCN(c2ccc(-n3ccnc3C)cc2)CC1` (stereo not drawn), the cytotoxicity at 70.5 h is -2.41%.

In the case of `CCN1CCC(CNC(=O)C(c2ccc(F)cc2)N(C)C)(N(C)C)CC1` (stereo not drawn), the cytotoxicity at 70.5 h was -6.97%.

For `CCN(CC)CCC(=O)NCc1cc2n(n1)CCN(C(=O)N(C)C)C2`, the cytotoxicity at 70.5 h was -11.8%.

For the compound `CCC[C@H]1CN(C2CCOCC2)C[C@@H]1NC(=O)CCc1cnccn1`, the cytotoxicity at 70.5 h was 6.02%.

On to `CO[C@H]1CN(C(C)C)C[C@@H]1NC(=O)Nc1ccc2oc(C)cc2c1`, for which the cytotoxicity at 70.5 h amounted to 26.1%.

Regarding `O=C(c1ccnc(CC2COc3ccccc3C2)c1)N1CCCC1` (stereo not drawn), the cytotoxicity at 70.5 h is -23.5%.

With `CCN1CCCC(CN2CCn3nc(CNC(=O)N(C)C)cc3C2)C1` (stereo not drawn), the cytotoxicity at 70.5 h was -8.51%.

`CN1CC2(CCCN(C(=O)c3cnc4ccc(F)cc4c3O)C2)OC1=O` (stereo not drawn): the cytotoxicity at 70.5 h was -6.43%.

On to `Cc1nccn1-c1ccc(NC(=O)C2CCCN2CC2CC2)cc1` (stereo not drawn), for which the cytotoxicity at 70.5 h was -1.14%.

Take `Cc1c(NC(=O)N(C)CCCc2cnn(C)c2)cnn1C`: the cytotoxicity at 70.5 h was -12.2%.

For the compound `CN1CCCN(C[C@@H]2CN(c3nc(C(N)=O)cs3)C[C@@H]2CO)CC1`, the cytotoxicity at 70.5 h was 4.88%.

On to `Cc1cc(N2CCCN(c3nc(C)nc(C)c3C)CC2)ccn1`, for which the cytotoxicity at 70.5 h was -11%.

As to `CS(=O)(=O)N1CCC[C@H]1c1ncnn1-c1ccc2c(c1)OCO2`, the cytotoxicity at 70.5 h was -1.95%.

`CCCc1ccc(C(=O)N2CCc3c(nc(N(C)C)[nH]c3=O)C2)cc1`: the cytotoxicity at 70.5 h is -5.16%.

For the compound `Cn1ccnc1CN1CCC(Cn2cc(-c3ccccc3)nn2)CC1`, the cytotoxicity at 70.5 h came out at 3.07%.

In the case of `COc1nccnc1N1CCC2(CC1)[C@H](O)C[C@@H]2OCCN(C)C`, the cytotoxicity at 70.5 h is -7.06%.

Turning to `CSc1nccc(N2CCCC(c3nccn3C(C)C)C2)n1` (stereo not drawn), the cytotoxicity at 70.5 h turned out to be 17.1%.

Regarding `CSCC(=O)N[C@H]1CN(Cc2c(C)noc2C)C[C@@H]1C(C)C`, the cytotoxicity at 70.5 h is -0.898%.

`CCc1cc(NC2CCS(=O)(=O)CC2)nc(N2CCCCC2)n1`: the cytotoxicity at 70.5 h was 22.5%.

Take `O=C(O)c1ccccc1C1CCN(C2Cc3ccccc3C2)C1` (stereo not drawn): the cytotoxicity at 70.5 h was -1.24%.

With `Cc1ccc2nc(-c3cnc(N)nc3)c(C)c(C(=O)N(C)C)c2c1`, the cytotoxicity at 70.5 h was 11.2%.

As for `NC(=O)N1CCCC(c2nc(-c3cccnn3)no2)C1` (stereo not drawn), the cytotoxicity at 70.5 h was -5.18%.

For the compound `COCCN1C(=O)[C@H]2CC[C@@H]1CN(c1ncccn1)C2`, the cytotoxicity at 70.5 h was 11.5%.

For the compound `CN1CCCCCC1C(=O)N1CCCN(c2ccccc2)CC1` (stereo not drawn), the cytotoxicity at 70.5 h is 4.68%.

With `COc1cccc(CCC2CCCN(C(=O)c3cnccn3)C2)c1` (stereo not drawn), the cytotoxicity at 70.5 h is -7.12%.

Turning to `Cc1cc(C(=O)N2CCC3(CCNCC3)CC2)c2cccc(C)c2n1`, the cytotoxicity at 70.5 h was found to be 43.8%.

As for `CCc1nc(C)c([C@H]2CN(C)C[C@@H]2C(=O)Nc2ccccc2F)[nH]1`, the cytotoxicity at 70.5 h is -13.9%.

As for `Cc1ccc(CCNc2ncnc3sc4c(c23)CCNC4)o1`, the cytotoxicity at 70.5 h was -8.67%.

Consider `Cc1cc(-n2cccn2)ccc1CN1CCOCC(CN(C)C)C1` (stereo not drawn), for which the cytotoxicity at 70.5 h was determined as 27.5%.

As to `O=C(O)CSc1nnc(-c2ccn[nH]2)n1-c1ccccc1Cl`, the cytotoxicity at 70.5 h is -6.93%.

For the compound `Cn1ncc2c(N[C@H]3CC[C@@H](N)CC3)nc(C(C)(C)C)nc21`, the cytotoxicity at 70.5 h was determined as 6.09%.

Turning to `CN(CC1(O)CCCN(Cc2cccc(F)c2F)C1=O)C1CCCCC1` (stereo not drawn), the cytotoxicity at 70.5 h was -0.975%.

On to `O=C(c1ccc(O)cn1)N1CCOC(Cc2cccc(C(F)(F)F)c2)C1` (stereo not drawn), for which the cytotoxicity at 70.5 h was 22.6%.

For `Cc1cc(N2CCCN(Cc3ccc(C)o3)CC2)ccn1`, the cytotoxicity at 70.5 h is -3.18%.

`CN(C)CCNc1ccc(-c2nc(-c3ccccc3F)no2)cn1`: the cytotoxicity at 70.5 h amounted to 0.837%.

As for `CN(C)C(C(=O)NCCn1cccc1)c1cccc(F)c1` (stereo not drawn), the cytotoxicity at 70.5 h is -4.48%.

On to `COCCCN1CC2(CCN(C(=O)c3ncc(F)cc3F)CC2)CC1=O`, for which the cytotoxicity at 70.5 h is -9.33%.

Take `CC1(C)OC(=O)N(CC(=O)N2CCC(c3ccccc3Cl)C2)C1=O` (stereo not drawn): the cytotoxicity at 70.5 h is -6.23%.

`CCC[C@@H]1CN(c2ncnc3sccc23)C[C@H]1NS(C)(=O)=O`: the cytotoxicity at 70.5 h was -4.58%.

As for `COc1cccc([C@H]2CN(C(=O)c3cc(C)on3)C[C@@H]2N)c1`, the cytotoxicity at 70.5 h was -10.9%.

With `CSCc1ccc(N(C)CC2CCCN(C(C)C)C2)nc1` (stereo not drawn), the cytotoxicity at 70.5 h was -2.8%.

`O=C(C1CC1)N1CCCN(c2ncnc3c2CCNCC3)CC1`: the cytotoxicity at 70.5 h was -6.41%.

In the case of `CC(C)[C@@H]1CN(C(=O)C2(c3ccccc3)CCN(C)CC2)C[C@H]1C(=O)O`, the cytotoxicity at 70.5 h is -5.2%.

With `CCCSc1ccccc1NC(=O)N1CCN(C(=O)c2ccc[nH]2)CC1`, the cytotoxicity at 70.5 h was -1.4%.

Turning to `CCN(Cc1cnn(C)c1)C[C@H]1CC[C@@H](Cc2ccc(CO)cc2)O1`, the cytotoxicity at 70.5 h is -3.31%.

`CN1C(=O)[C@H]2CC[C@@H]1CN(c1ncnc3ccsc13)C2`: the cytotoxicity at 70.5 h worked out at 11.8%.

Regarding `Cn1ncc2c(NCCn3cccc3)nc(C3CCCC3)nc21`, the cytotoxicity at 70.5 h is -5.71%.

Regarding `COc1ccc(CC(=O)N2CCCC(Cn3cc(CN)nn3)C2)cc1` (stereo not drawn), the cytotoxicity at 70.5 h is -4.47%.

With `CCCN1CCCn2nc(CNC(=O)C3CCOC3)cc2C1` (stereo not drawn), the cytotoxicity at 70.5 h is -2.94%.

For `COCCN(C)CC(=O)N1C[C@@H](C)[C@](O)(C(C)C)C1`, the cytotoxicity at 70.5 h was -1.28%.

As to `CCN(CC)C(=O)c1ccc(Cl)c(NC(=O)c2csnn2)c1`, the cytotoxicity at 70.5 h was -10.1%.

With `Cc1cnccc1N1CCN(C[C@]2(O)CCCN3CCCC[C@@H]32)CC1`, the cytotoxicity at 70.5 h was 4.29%.

`CC(C)n1cnnc1CN(C)Cc1ccc(CN(C)S(C)(=O)=O)o1`: the cytotoxicity at 70.5 h is -2.72%.

For the compound `COCC(=O)N(Cc1cccnc1)CC1CCCN(C2CCCCC2)C1` (stereo not drawn), the cytotoxicity at 70.5 h is -5.51%.

On to `Cc1ncc(C(=O)N2CCCCC2c2nc3cc(F)ccc3[nH]2)c(O)n1` (stereo not drawn), for which the cytotoxicity at 70.5 h is -20%.

Regarding `O=C(CCc1cc2n(n1)CCCN(C(=O)c1ccncc1)C2)NC1CC1`, the cytotoxicity at 70.5 h was -6.73%.

As for `CCCOc1cc(Cl)c(CN2CCNC(C(=O)NC3CC3)C2)cc1OC` (stereo not drawn), the cytotoxicity at 70.5 h was -10.6%.

On to `COc1ccc2c(c1)CC(NCCCn1nc(C)nc1C)CC2` (stereo not drawn), for which the cytotoxicity at 70.5 h was -9.14%.

With `CCCc1nnc(NC(C)c2ccc(F)cc2)o1` (stereo not drawn), the cytotoxicity at 70.5 h is -8.69%.

As to `CC(C)CC(O)C1CCN(Cc2ccc(N(C)C)nc2)CC1` (stereo not drawn), the cytotoxicity at 70.5 h was 23.2%.

Take `CCCn1ccnc1CN1CCCC(O)(CN(C)C)CC1` (stereo not drawn): the cytotoxicity at 70.5 h was -3.55%.

In the case of `COc1ccc(C(C(=O)O)N2CCC(Cn3cccn3)CC2)cc1F` (stereo not drawn), the cytotoxicity at 70.5 h is 22.7%.

`Cc1nn(CCN2CCSCC2)cc1CNCc1ccccn1`: the cytotoxicity at 70.5 h was -5.69%.

For `O=C(c1ccc(=O)[nH]c1)N1CCC(Oc2cccc(C(F)(F)F)c2)CC1`, the cytotoxicity at 70.5 h is 3.69%.

Regarding `COCC1(Nc2nc(C)nc3c2cnn3C)CCCC1`, the cytotoxicity at 70.5 h was determined as 3.28%.

In the case of `Cn1ncc(N2CCN(Cc3ccc(S(C)(=O)=O)cc3)CC2)cc1=O`, the cytotoxicity at 70.5 h is -5.42%.

On to `CC(=O)N1CCc2c(nc(N(C)C)nc2N(C)CCCC2CCCO2)C1` (stereo not drawn), for which the cytotoxicity at 70.5 h was 10.7%.

As for `CC(C)(CO)Nc1cc(-c2cn[nH]c2)ncn1`, the cytotoxicity at 70.5 h was -2.91%.
